Patent publication US20250019385A1, “SPIROCYCLIC ANNULATED 2-AMINO-3-CYANO THIOPHENES AND DERIVATIVES FOR THE TREATMENT OF CANCER” (Boehringer Ingelheim International GmbH, priority 2023, published 2025)

System: NCI-H358 cells
Assay: NCI-H358 CTG proliferation assay (120 h) (NSCLC, G12C)
Type: cell-based
Settings: Homo sapiens
Protocol: (§1) NCI-H358 cells (ATCC No. CRL-5807) are dispensed into black 384-well plates, flat and clear bottom (Greiner, PNr. 781091) at a density of 200 cells per well in 60 μl RPMI-1640 ATCC-Formulation (Gibco #A10491)+10% FCS (fetal calf serum). Cells are incubated overnight at 37° C. in a humidified tissue culture incubator at 5% CO2. Compounds (10 mM stock in DMSO) are added at logarithmic dose series using the ECHO acoustic liquid handler system (Beckman Coulter), normalizing for added DMSO and including DMSO controls. All compound treatments are performed in technical duplicates. For the TO time point measurement, untreated cells are analyzed at the time of compound addition. Plates are incubated for 120 h, and cell viability is measured using CellTiter-Glo luminescent cell viability reagent (Promega product code G7570). Viability (stated as percent of control) is defined as relative luminescence units RLU of each well divided by the RLU of cells in DMSO controls. IC50 values are determined from viability measurements by non-linear regression using a four-parameter model.
(§2) IC50 values of representative compounds according to the invention measured with these assays in the indicated cell lines are presented in Table 46.

SMILES	IC50
CCn1c(=O)n([C@@H]2CCOC2)c2nc(-c3onc4c3CCC[C@@]43CCCc4sc(N)c(C#N)c43)nc(O[C@@H](C)[C@@H]3CCCN3C)c21 [I-21]	3 nM
C[C@H](Oc1nc(-c2onc3c2CCC[C@@]32CCCc3sc(N)c(C#N)c32)nc2c1n(C)c(=O)n2[C@H]1CCC[C@@H]1O)[C@@H]1CCCN1C [I-19]	201 nM
C[C@H](Oc1nc(-c2onc3c2CCC[C@@]32CCCc3sc(N)c(C#N)c32)nc2c1n(C)c(=O)n2C1CCOCC1)[C@@H]1CCCN1C [I-10]	42 nM
CO[C@@H]1C[C@@H]([C@H](C)Oc2nc(-c3onc4c3CCC[C@@]43CCCc4sc(N)c(C#N)c43)nc3c2CN(C2COC2)C[C@]32CCOC2)N(C)C1 [I-58]	5 nM
C[C@H](Oc1nc(-c2noc3c2CCC[C@@]32CCCc3sc(N)c(C#N)c32)nc2c1COC[C@@]21CCOC1)[C@@H]1CCCN1C [II-9a]	74 nM
C[C@H](Oc1nc(-c2onc3c2CCC[C@@]32CCCc3sc(N)c(C#N)c32)nc2c1CN(C1COC1)C[C@]21CCOC1)[C@@H]1CC[C@H](C)N1C [I-55]	5 nM

System: AsPC-1 cells
Assay: AsPC-1 CTG proliferation assay (120 h) (pancreatic cancer, G12D)
Type: cell-based
Settings: Homo sapiens, ASPC1
Protocol: as §1, with “AsPC-1” for “NCI-H358”, “CRL-1682)” for “No. CRL-5807)”, “500” for “200”, “RPMI” for “RPMI-1640”, “(PAN P04-18047)+10%” for “(Gibco #A10491)+10%”, “serum, HyClone, SH30084.03).” for “serum).”
as §2

SMILES	IC50
CCn1c(=O)n([C@@H]2CCOC2)c2nc(-c3onc4c3CCC[C@@]43CCCc4sc(N)c(C#N)c43)nc(O[C@@H](C)[C@@H]3CCCN3C)c21 [I-21]	327 nM
C[C@H](Oc1nc(-c2onc3c2CCC[C@@]32CCCc3sc(N)c(C#N)c32)nc2c1n(C)c(=O)n2[C@H]1CCC[C@@H]1O)[C@@H]1CCCN1C [I-19]	2990 nM
C[C@H](Oc1nc(-c2onc3c2CCC[C@@]32CCCc3sc(N)c(C#N)c32)nc2c1n(C)c(=O)n2C1CCOCC1)[C@@H]1CCCN1C [I-10]	3470 nM
CO[C@@H]1C[C@@H]([C@H](C)Oc2nc(-c3onc4c3CCC[C@@]43CCCc4sc(N)c(C#N)c43)nc3c2CN(C2COC2)C[C@]32CCOC2)N(C)C1 [I-58]	314 nM
C[C@H](Oc1nc(-c2noc3c2CCC[C@@]32CCCc3sc(N)c(C#N)c32)nc2c1COC[C@@]21CCOC1)[C@@H]1CCCN1C [II-9a]	1070 nM
C[C@H](Oc1nc(-c2onc3c2CCC[C@@]32CCCc3sc(N)c(C#N)c32)nc2c1CN(C1COC1)C[C@]21CCOC1)[C@@H]1CC[C@H](C)N1C [I-55]	202 nM

System: SK-CO-1 cells
Assay: SK-CO-1 CTG proliferation assay (120 h) (CRC, G12V)
Type: cell-based
Settings: Homo sapiens
Protocol: as §1, with “SK—CO-1” for “NCI-H358”, “HTB-39)” for “No. CRL-5807)”, “500” for “200”, “EMEM (Sigma M5650)+10%” for “RPMI-1640 ATCC-Formulation (Gibco #A10491)+10%”, “serum, HyClone, SH30084.03).” for “serum).”
as §2

SMILES	IC50
CCn1c(=O)n([C@@H]2CCOC2)c2nc(-c3onc4c3CCC[C@@]43CCCc4sc(N)c(C#N)c43)nc(O[C@@H](C)[C@@H]3CCCN3C)c21 [I-21]	5 nM
C[C@H](Oc1nc(-c2onc3c2CCC[C@@]32CCCc3sc(N)c(C#N)c32)nc2c1n(C)c(=O)n2[C@H]1CCC[C@@H]1O)[C@@H]1CCCN1C [I-19]	190 nM
C[C@H](Oc1nc(-c2onc3c2CCC[C@@]32CCCc3sc(N)c(C#N)c32)nc2c1n(C)c(=O)n2C1CCOCC1)[C@@H]1CCCN1C [I-10]	69 nM
CO[C@@H]1C[C@@H]([C@H](C)Oc2nc(-c3onc4c3CCC[C@@]43CCCc4sc(N)c(C#N)c43)nc3c2CN(C2COC2)C[C@]32CCOC2)N(C)C1 [I-58]	9 nM
C[C@H](Oc1nc(-c2noc3c2CCC[C@@]32CCCc3sc(N)c(C#N)c32)nc2c1COC[C@@]21CCOC1)[C@@H]1CCCN1C [II-9a]	101 nM
C[C@H](Oc1nc(-c2onc3c2CCC[C@@]32CCCc3sc(N)c(C#N)c32)nc2c1CN(C1COC1)C[C@]21CCOC1)[C@@H]1CC[C@H](C)N1C [I-55]	6 nM

System: NCI-H727 cells
Assay: NCI-H727 CTG proliferation assay (120 h) (lung cancer, G12V)
Type: cell-based
Settings: Homo sapiens
Protocol: as §1, with “NCI-H727” for “NCI-H358”, “CRL-5815)” for “CRL-5807)”, “500” for “200”, “RPMI” for “RPMI-1640”, “(PAN P04-18047)+10%” for “(Gibco #A10491)+10%”, “serum, HyClone, SH30084.03).” for “serum).”
as §2

SMILES	IC50
CCn1c(=O)n([C@@H]2CCOC2)c2nc(-c3onc4c3CCC[C@@]43CCCc4sc(N)c(C#N)c43)nc(O[C@@H](C)[C@@H]3CCCN3C)c21 [I-21]	4 nM
C[C@H](Oc1nc(-c2onc3c2CCC[C@@]32CCCc3sc(N)c(C#N)c32)nc2c1n(C)c(=O)n2[C@H]1CCC[C@@H]1O)[C@@H]1CCCN1C [I-19]	116 nM
C[C@H](Oc1nc(-c2onc3c2CCC[C@@]32CCCc3sc(N)c(C#N)c32)nc2c1n(C)c(=O)n2C1CCOCC1)[C@@H]1CCCN1C [I-10]	108 nM
CO[C@@H]1C[C@@H]([C@H](C)Oc2nc(-c3onc4c3CCC[C@@]43CCCc4sc(N)c(C#N)c43)nc3c2CN(C2COC2)C[C@]32CCOC2)N(C)C1 [I-58]	5 nM
C[C@H](Oc1nc(-c2noc3c2CCC[C@@]32CCCc3sc(N)c(C#N)c32)nc2c1COC[C@@]21CCOC1)[C@@H]1CCCN1C [II-9a]	22 nM
C[C@H](Oc1nc(-c2onc3c2CCC[C@@]32CCCc3sc(N)c(C#N)c32)nc2c1CN(C1COC1)C[C@]21CCOC1)[C@@H]1CC[C@H](C)N1C [I-55]	3 nM

System: not listed separately
Assay: Metabolic (microsomal) stability assay, human liver microsomes (HLM)
Type: in vitro ADME
Settings: 1 μM test compound, predicted clearance as percent of liver blood flow
Protocol: The metabolic degradation of the test compound is assayed at 37° C. with pooled liver microsomes (mouse (MLM), rat (RLM) or human (HLM)). The final incubation volume of 48 μL per time point contains TRIS buffer (pH 7.5; 0.1 M), magnesium chloride (6.5 mM), microsomal protein (0.5 mg/mL for mouse/rat, 1 mg/mL for human specimens) and the test compound at a final concentration of 1 μM. Following a short preincubation period at 37° C., the reactions are initiated by addition of 12 μL beta-nicotinamide adenine dinucleotide phosphate, reduced form (NADPH, 10 mM) and terminated by transferring an aliquot into solvent after different time points (0, 5, 15, 30, 60 min). Additionally, the NADPH-independent degradation is monitored in incubations without NADPH, terminated at the last time point by addition of acetonitrile. The quenched incubations are pelleted by centrifugation (4,000 rpm, 15 min). An aliquot of the supernatant is assayed by LC-MS/MS to quantify the concentration of parent compound in the individual samples.
In vitro intrinsic clearance (CLint,in vitro) is calculated from the time course of the disappearance of the test drug during the microsomal incubation. Each plot is fitted to the first-order elimination rate constant as C(t)=C0*exp(−ke*t), where C(t) and C0 are the concentration of unchanged test drug at incubation time t and that at preincubation and ke is the disappearance rate constant of the unchanged drug. Subsequently, CLint, in vitro (μL min^−1·amount protein) values are converted to predicted CLint,in vivo (mL min^−1·kg^−1) from incubation parameters according to the equation CLint, in vivo=CLint, in vitro×(incubation volume (mL)/amount protein (mg))×(amount protein (mg)/g liver tissue)×(liver weight/body wt.).
For better across species comparison the predicted clearance is expressed as percent of the liver blood flow [% QH] (mL min^−1·kg^−1) in the individual species. In general, high stability (corresponding to low % QH) of the compounds across species is desired.

SMILES	HLM QH
CCn1c(=O)n([C@@H]2CCOC2)c2nc(-c3onc4c3CCC[C@@]43CCCc4sc(N)c(C#N)c43)nc(O[C@@H](C)[C@@H]3CCCN3C)c21 [I-21]	45%
C[C@H](Oc1nc(-c2onc3c2CCC[C@@]32CCCc3sc(N)c(C#N)c32)nc2c1n(C)c(=O)n2[C@H]1CCC[C@@H]1O)[C@@H]1CCCN1C [I-19]	<24%
C[C@H](Oc1nc(-c2onc3c2CCC[C@@]32CCCc3sc(N)c(C#N)c32)nc2c1n(C)c(=O)n2C1CCOCC1)[C@@H]1CCCN1C [I-10]	33%
CO[C@@H]1C[C@@H]([C@H](C)Oc2nc(-c3onc4c3CCC[C@@]43CCCc4sc(N)c(C#N)c43)nc3c2CN(C2COC2)C[C@]32CCOC2)N(C)C1 [I-58]	52%
C[C@H](Oc1nc(-c2noc3c2CCC[C@@]32CCCc3sc(N)c(C#N)c32)nc2c1COC[C@@]21CCOC1)[C@@H]1CCCN1C [II-9a]	29%
C[C@H](Oc1nc(-c2onc3c2CCC[C@@]32CCCc3sc(N)c(C#N)c32)nc2c1CN(C1COC1)C[C@]21CCOC1)[C@@H]1CC[C@H](C)N1C [I-55]	52%
